Data: PMC5943490, “Altered Expression of the Malate-Permeable Anion Channel OsALMT4 Reduces the Growth of Rice Under Low Radiance” (Frontiers in Plant Science, 2018)

Key:
OsALMT4 [1] = target: T1, OsALMT4 (Oryza sativa, UniProt Q0JPI1); assay: malate efflux from intact OX5 seedlings, concentration series; details: read-out: Ki (half maximum inhibition)
T1 construct: gene Os01g0221600; full-length, constitutively over-expressed in transgenic rice (homozygous line OX5)
T1 sequence (Q0JPI1 1-524): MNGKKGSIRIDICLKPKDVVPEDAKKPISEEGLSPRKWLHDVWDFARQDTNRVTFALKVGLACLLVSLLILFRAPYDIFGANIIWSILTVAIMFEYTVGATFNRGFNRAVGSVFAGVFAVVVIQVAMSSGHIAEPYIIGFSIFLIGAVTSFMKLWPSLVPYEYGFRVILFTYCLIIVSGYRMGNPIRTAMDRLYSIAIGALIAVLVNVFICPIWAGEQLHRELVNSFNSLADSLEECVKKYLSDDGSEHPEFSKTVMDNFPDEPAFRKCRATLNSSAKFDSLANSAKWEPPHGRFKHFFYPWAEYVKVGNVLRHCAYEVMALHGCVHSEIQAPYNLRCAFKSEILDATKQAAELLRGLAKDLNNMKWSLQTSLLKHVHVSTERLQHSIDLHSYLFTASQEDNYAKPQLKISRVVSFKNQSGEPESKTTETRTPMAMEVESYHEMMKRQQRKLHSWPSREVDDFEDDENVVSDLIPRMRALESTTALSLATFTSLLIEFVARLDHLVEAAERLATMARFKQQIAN

OsALMT4 [2] = target: T1, OsALMT4; assay: malate efflux from intact OX5 and OX5_null seedlings; details: pH 5.6; transported anion, stereo not told
OsALMT4 [3] = target: T1, OsALMT4; assay: malate efflux from intact OX5 seedlings; details: read-out: malate efflux, % of control at 100 μM

## O=C(O)c1ccccc1O [SA, salicylic acid]
OsALMT4 [1]
  IC50: 25 µM

## O=C(O)C[C@H](O)C(=O)O [malate]
OsALMT4 [2]
  malate efflux from intact OX5 and OX5_null seedlings: SA treatment effectively inhibited malate efflux via OsALMT4 in the transgenic OX lines

## O=C(O)c1cccnc1Nc1cccc(C(F)(F)F)c1 [niflumate]
OsALMT4 [3]
  remaining activity at 100 µM: < 20%
